Assay results from patent US11274129B2, “Methods for protein tyrosine phosphorylation profiling with variant SH2 domains” (priority 2016, dated 2022).
Substitutions are numbered along the chain they refer to.

B1: QuadM Src SH2: TrM human Src SH2 domain variant with additional mutation Thr218Trp in its specificity-binding pocket; His6-tagged form SEQ ID NO: 13 (protein)
chain: DSIQAEEWYFGKITRRESERLLLNAENPRGTFLVRESETVKGAYALSVSDFDNAKGLNVKHYLIRKLDSGGFYIWSRTQFNSLQQLVAYYSKHADGLCHRLTTVCPTSK
modifications: SH2 protein domain; QuadM human Src SH2 domain
B2: TrM Fyn SH2 domain: variant human Fyn SH2 domain with Thr181Val, Ser186Ala and Lys204Leu (protein)
chain: APVDSIQAEEWYFGKLGRKDAERQLLSFGNPRGTFLIRESETVKGAYALSIRDWDDMKGDHVKHYLIRKLDNGGYYITTRAQFETLQQLVQHYSERAAGLCCRLVVPCHKG
modifications: SH2 protein domain; TrM human Fyn SH2 domain
notes: variant human Fyn SH2 domain with Thr181Val, Ser186Ala and Lys204Leu
B3: wild-type Fyn SH2 domain: wild-type human Fyn SH2 domain (protein)
chain: B2 chain with V43T, A48S, L66K
modifications: SH2 protein domain; Wild-type human Fyn SH2 domain

Columns and labels:
BT-474 cells = experiment: Cell growth inhibition assay (CellTiter 96 AQueous One Solution Cell Proliferation Assay); format: cell-based, human; details: single inhibitor at different concentrations (FIG. 11A)
Procedure: (§1) Cell growth inhibition assays were performed with the CellTiter 96 AQueous One Solution Cell Proliferation Assay (Promega) according to the manufacturer's recommendations.

MDA-MB-231 cells = experiment: as above; format: cell-based, human; details: single inhibitor at different concentrations (FIG. 11A)
Procedure: as §1

SK-BR-3 cells = experiment: as above; format: cell-based, human; details: single inhibitor at different concentrations (FIG. 11A)
Procedure: as §1

MCF-7 cells = experiment: as above; format: cell-based, human; details: single inhibitor at different concentrations (FIG. 11A)
Procedure: as §1

[1] = tested on: pTyr-including peptides from pervanadate-treated Jurkat cells; experiment: Enrichment of pTyr-including peptides from pervanadate-treated Jurkat cells by affinity reagents, 1D LC-MS/MS; design: species or system human; details: 3 mg Jurkat peptides
Procedure: Experiments were conducted to determine the relative efficacy of the variant Src SH2 domains and commonly used anti-pTyr antibodies as affinity reagents for pTyr-including peptides from biological samples. His6/GST-tagged TrM Src SH2 domain (SEQ ID NO: 11) and His6-tagged QuadM Src SH2 domain (SEQ ID NO: 13), as well as anti-pTyr antibodies, were prepared in functionally-equivalent molar amounts by using half the molar amount of the antibodies relative to the SH2 domain variants given that each antibody molecule has two binding sites for its antigen.
The first experiment tested the relative ability of the following affinity reagents to extract pTyr-including peptides from a peptide mixture prepared from Jurkat cells: a His6/GST-tagged TrM Src SH2 (SEQ ID NO: 11), a His6-tagged QuadM Src SH2 (SEQ ID NO: 13), the anti-pTyr antibody 4G10 (agarose conjugate, obtained from Millipore), and a mixture of commercially-available anti-pTyr antibodies. […] The two SH2 affinity reagents were also tested at a 30× amount; the antibodies were not tested at a 30× amount due to the prohibitive cost of doing so. The purified SH2 affinity reagents were prepared as described in Example 1. The antibody mixture contained 4G10 (as above), PY99 (obtained from Santa Cruz Biotechnology), and P-Tyr-100 (slurry of PTMScan® Phospho-Tyrosine Mouse mAb, obtained from Cell Signaling Technology). Since the concentration of P-Tyr-100 is unknown, the amount was used as recommended by the vendor (i.e., 4 μL for 1 mg peptide digest).
FIG. 2A presents a schematic of the experimental design. Each amount of His6-tagged SH2 domain variant or antibody was subjected to a binding experiment with 3 mg of a peptide mixture prepared from pervanadate-treated Jurkat cells.
Jurkat cells (obtained from ATCC) were cultured in a humidified atmosphere of 5% CO2 at 37° C. in Roswell Park Memorial Institute 1640 medium (RPMI-1640) supplemented with 10% bovine serum and 100 U/mL of streptomycin and penicillin.
The cells were again collected by centrifugation. The cell pellets were gently homogenized in an ice-cold lysis buffer containing 8 M urea, 50 mM tris(hydroxymethyl)aminomethane (Tris)-HCl (pH 7.4), 2% protease inhibitor cocktail (v/v, obtained from Sigma-Aldrich), 1% Triton X-100 (v/v), 1 mM NaF, and 1 mM Na3VO4, followed by sonication at 400 W for 120 s. After centrifugation at 25,000 g for 1 h, proteins were precipitated in ice-cold acetone/ethanol/acetic acid (50/50/0.1, V/V/V) solution. Subsequently, the proteins were diluted in reducing buffer containing 100 mM triethylammonium bicarbonate (TEAB) buffer (pH 8.2) and 8 M urea, and the final protein concentration was determined by Bradford assay. The protein suspension was reduced in 10 mM dithiothreitol (DTT) at 37° C. for 2 h, and it was then alkylated in 20 mM iodoacetamide (IAA) in darkness at room temperature for another 30 min. Trypsin digestion was performed at 37° C. overnight with an enzyme-to-protein ratio of 1/25 (w/w). The resulting peptide mixture was stored at −80° C. for further analysis.
Desalted Jurkat peptides (30 mg) were dissolved in ice-cold immunoaffinity purification (IAP) buffer and then split into 10 aliquots with 3 mg of Jurkat peptides each. Binding experiments were performed with the amounts of antibody (1×, 5×) or SH2 domain variant (1×, 5×, 30×) set out in Table 1 and FIG. 2A.
For antibody-based enrichment, 4G10 or the antibody mixture was incubated with the sample at 4° C. overnight while rotating. The beads were washed three times with ice-cold IAP buffer and twice with ice-cold water. To release the bound peptides, the beads were eluted twice with 200 μL 0.15% trifluoroacetic acid (TFA) for 15 min at room temperature.
For SH2-based enrichment, Ni-NTA beads containing the purified SH2 proteins were washed extensively in twenty column volumes of PBS buffer (pH 7.0) containing 20 mM imidazole. […] The washed beads were incubated with the peptide mixture at 4° C. overnight while rotating. […]

[2] = tested on: pTyr-including peptide found in the sequence of the receptor tyrosine kinase EGFR; experiment: Binding of wild-type and TrM Fyn SH2 domain to EGFR pTyr peptide
Description: The relative affinity of a variant SH2 domain, including a SH2 Superbinder, can be readily assessed compared to the affinity of the relevant parent SH2 domain, using binding assays known in the art, including as described in Kaneko, T. et al., “SH2 Superbinders act as antagonists of cell signaling”, (2012) Sci. Signal. 5: ra68; and U.S. patent application Ser. No. 14/388,592.

[3] = target: pTyr-including peptide found in the sequence of the receptor tyrosine kinase EGFR (Homo sapiens, UniProt P06241, K204L/S186A/T181V); details: read-out: equilibrium dissociation constant (Kd); cited from earlier work
[4] = target: pTyr-including peptide found in the sequence of the receptor tyrosine kinase EGFR (Homo sapiens, UniProt P06241); details: cited from earlier work

Molecule | proliferation relative to no drug exposure (BT-474 cells) | proliferation relative to no drug exposure (MDA-MB-231 cells) | proliferation relative to no drug exposure (SK-BR-3 cells) | proliferation relative to no drug exposure (MCF-7 cells) | further results
CCN1CCN(Cc2ccc(C(=O)Nc3ccc(C)c(Oc4ccc5c(c4)CC(=O)N5)c3)cc2C(F)(F)F)CC1 [DDR1-IN-1] | neither inhibitor had an effect | neither inhibitor had an effect | neither inhibitor had an effect | – | –
CS(=O)(=O)CCNCc1ccc(-c2ccc3ncnc(Nc4ccc(OCc5cccc(F)c5)c(Cl)c4)c3c2)o1 [lapatinib] | sensitive | insensitive | sensitive | insensitive | –
CNC(=O)c1c(F)cccc1Nc1nc(Nc2cc3c(cc2OC)CCN3C(=O)CN(C)C)nc2[nH]ccc12 [GSK1838705] | neither inhibitor had an effect | neither inhibitor had an effect | neither inhibitor had an effect | inhibited the proliferation of MCF-7 in a dose-dependent manner | –
B1 | – | – | – | – | Number of pTyr sites identified ([1]; 0.375 nmol (1x) pTyr-binding sites): 679; Number of pTyr sites identified ([1]; 1.875 nmol (5x) pTyr-binding sites): 938; Number of pTyr sites identified ([1]; 11.25 nmol (30x) pTyr-binding sites): 1186
B2 | – | – | – | – | fold tighter binding than wild-type Fyn SH2 domain [2]: around 380 fold; Kd [3]: 9.7 nM
B3 | – | – | – | – | Kd [4]: 3700 nM
